Measurements from patent publication US20240299359A1, “PHARMACEUTICAL COMPOSITION FOR ANIMALS CONTAINING 5-HYDROXY-METHYLIMIDAZOLIDINE-2,4-DIONE COMPOUND AS ACTIVE INGREDIENT” (KYONGBO PHARM. CO., LTD., priority 2021, published 2024).
Values joined by “and” are separate entries in the source; they are usually repeats but may differ in a detail not shown here. Identical values can stand only once.

Key:
[1] = 13-week repeated oral toxicity: feed intake; type: in vivo, beagle; settings: repeated oral once a day for 13 weeks
Procedure: During the 13-week test period starting from the day before administration, feed intake was measured a total of 14 times before administration (pre) and every week on the weight measurement day for 13 weeks after the first administration. Approximately 200 g/day/head of solid feed was injected into a feed container at a predetermined time on the day before the weight measurement day and consumed freely. After 24 hours, the remaining feed was measured the next day.

beagles [2] = test: 13-week repeated oral toxicity: eye test; type: in vivo, beagle; settings: before and after administration, 13 weeks
Procedure: Eye test were conducted in the afternoon in the blood test day and blood donation day before administration (pre), the 4th week (day 29) after administration, the 8th week (day 57), and the 13th week (day 92) after administration. After observing the appearance of the left and right eyes on all the subjects, both the left and right eyes were dilated with a mydriatic agent (Mydrin®-P eye drops, ingredients: tropicamide/phenylephrine hydrochloride Taejun Pharmaceutical), and then the vitreous body and retina were tested with an ophthalmoscope (Vantage Plus LED Convertible Wired, Keeler Instruments Inc. USA).

beagles [3] = test: 13-week repeated oral toxicity: urine test; type: in vivo, beagle; settings: for Acidity / Specific gravity / Creatinine UPC / Occult blood / Protein / Bilirubin: urine
Procedure: Urine tests were performed on the urine collected in the morning of blood donation day (Wednesday of the week) after fasting for about 16 hours, before administration, 4th week (day 29) after administration, the 8th week (day 57) after administration, and 13th week (day 92) after administration. Urine was collected from all the fasting subjects using a silicone tube connected to a duct after mounting a urine plate at the bottom of the cage for 16 hours. The collected urine was centrifuged at 1,500 rpm for 5 minutes to obtain the supernatant, then immersed in a urine strip (thinka Urine Test Strip, ARKRAY, Inc., Japan), the residue around the strip was removed, urine was analyzed using a urine analyzer (thinka RT-4010, ARKRAY, Inc., Japan), and the urine specific gravity of each subject was measured using a urine hydrometer (Master-URC.NM, ATAGO CO., LTD, Japan).

[4] = test system: dogs with chronic renal failure; test: Therapeutic effect on dogs with chronic renal failure (blood creatinine); type: in vivo, dog; settings: change before/after
Procedure: An experiment was conducted to determine the therapeutic effect and optimal dosage of 5-hydroxy-1-methylimidazolidine-2,4-dione in animal kidney disease. Dogs (5 dogs per group) diagnosed with chronic renal failure and with a blood creatinine concentration of 1.4 mg/dL or higher were treated with 5-hydroxy-methylimidazolidine-2,4-dione at […] of 0, 12.5, 25, 50, and 100 mg/kg for 2 months, and the change in blood creatinine concentration (AsCr) before and after administration was determined.

[5] = before administration, 200 mg/kg group, female, group mean
[6] = before administration, 200 mg/kg group, female, individual animal
[7] = before administration, 200 mg/kg group, female, individual animal, 200 mg/kg
[8] = before administration, 200 mg/kg group, male, group mean
[9] = before administration, 200 mg/kg group, male, individual animal
[10] = before administration, 200 mg/kg group, male, individual animal, 200 mg/kg
[11] = before administration, 500 mg/kg group, female, group mean
[12] = before administration, 500 mg/kg group, female, individual animal
[13] = before administration, 500 mg/kg group, female, individual animal, 500 mg/kg
[14] = before administration, 500 mg/kg group, male, group mean
[15] = before administration, 500 mg/kg group, male, individual animal
[16] = before administration, 500 mg/kg group, male, individual animal, 500 mg/kg
[17] = before administration, 1,000 mg/kg group, female, group mean
[18] = before administration, 1,000 mg/kg group, female, individual animal
[19] = before administration, 1,000 mg/kg group, male, group mean
[20] = before administration, 1,000 mg/kg group, male, individual animal
[21] = 200 mg/kg, females, repeated administration for 13 weeks, group Mean
[22] = 200 mg/kg, females, repeated administration for 13 weeks, individual animals
[23] = 200 mg/kg, males, repeated administration for 13 weeks, group Mean
[24] = 200 mg/kg, males, repeated administration for 13 weeks, individual animals
[25] = 500 mg/kg, females, repeated administration for 13 weeks, group Mean
[26] = 500 mg/kg, females, repeated administration for 13 weeks, individual animals
[27] = 500 mg/kg, males, repeated administration for 13 weeks, group Mean
[28] = 500 mg/kg, males, repeated administration for 13 weeks, individual animals
[29] = 1,000 mg/kg, females, repeated administration for 13 weeks, group Mean
[30] = 1,000 mg/kg, females, repeated administration for 13 weeks, individual animals
[31] = 1,000 mg/kg, males, repeated administration for 13 weeks, group Mean
[32] = 1,000 mg/kg, males, repeated administration for 13 weeks, individual animals

## CN1C(=O)NC(=O)C1O (stereo not drawn) [KBP-001, 5-hydroxy-1-methylimidazolidine-2,4-dione]
[1]
  feed intake: no significant difference in feed intake between respective groups
Beagles [2]
  eye test findings: no specific findings were observed
Beagles [3]; before and after administration, 13 weeks
  urine test items including urine specific gravity: fell within the normal physiological ranges
Beagles [3]; [5]
  Acidity: 7.833 PH
  Specific gravity: 1.03
Beagles [3]; [6]
  Creatinine UPC: <0.20 mg(ratio)
  Occult blood: 0.03(+−) RBC/dl
Beagles [3]; [7]
  Acidity: 8.0 PH and 7.0 PH and 8.5 PH
  Specific gravity: 1.02 (2×) and 1.04
Beagles [3]; [8]
  Acidity: 8.000 PH
  Specific gravity: 1.03
Beagles [3]; [9]
  Creatinine UPC: <0.20 mg(ratio)
  Protein: 15(+−)
Beagles [3]; [10]
  Acidity: 8.0 PH and 7.0 PH and 9.0 PH
  Specific gravity: 1.03
Beagles [3]; [11]
  Acidity: 6.833 PH
  Specific gravity: 1.02
Beagles [3]; [12]
  Creatinine UPC: <0.20 mg(ratio)
  Occult blood: 0.03(+−) RBC/dl
Beagles [3]; [13]
  Acidity: 6.5 PH and 7.0 PH (2×)
  Specific gravity: 1.02
Beagles [3]; [14]
  Acidity: 8.167 PH
  Specific gravity: 1.03
Beagles [3]; [15]
  Bilirubin: 0.5(1+)
  Creatinine UPC: <0.20 mg(ratio)
Beagles [3]; [16]
  Acidity: 8.5 PH (2×) and 7.5 PH
  Specific gravity: 1.03 (2×) and 1.04
Beagles [3]; [17]
  Acidity: 7.667 PH
  Specific gravity: 1.03
Beagles [3]; [18]
  Acidity: 8.0 PH and 7.5 PH (2×)
  Creatinine UPC: <0.20 mg(ratio)
  Specific gravity: 1.04 and 1.02 (2×)
Beagles [3]; [19]
  Acidity: 8.000 PH
  Specific gravity: 1.03
Beagles [3]; [20]
  Acidity: 8.0 PH and 9.0 PH and 7.0 PH
  Bilirubin: 0.5(1+)
  Creatinine UPC: <0.20 mg(ratio)
  Occult blood: 0.06(1+) RBC/dl
  Specific gravity: 1.03 and 1.02 and 1.04
Beagles [3]; [21]
  Acidity: 7.333 PH
  Specific gravity: 1.03
Beagles [3]; [22]
  Acidity: 7.0 PH (2×) and 8.0 PH
  Creatinine UPC: <0.20 mg(ratio)
Beagles [3]; [23]
  Acidity: 8.567 PH
  Specific gravity: 1.04
Beagles [3]; [24]
  Acidity: 8.0 PH and 9.0 PH (2×)
  Bilirubin: 0.5(1+)
  Creatinine UPC: <0.20 mg(ratio)
  Protein: 15(+−)
  Specific gravity: 1.04 and 1.05 and 1.02
Beagles [3]; [25]
  Acidity: 8.500 PH
  Specific gravity: 1.03
Beagles [3]; [26]
  Acidity: 9.0 PH and 8.5 PH and 8.0 PH
  Creatinine UPC: <0.20 mg(ratio)
  Specific gravity: 1.04 (2×) and 1.02
Beagles [3]; [27]
  Acidity: 8.500 PH
  Specific gravity: 1.04
Beagles [3]; [28]
  Acidity: 9.0 PH (2×) and 7.5 PH
  Creatinine UPC: <0.20 mg(ratio)
  Protein: 15(+−)
  Specific gravity: 1.05 and 1.02 and 1.04
Beagles [3]; [29]
  Acidity: 7.667 PH
  Specific gravity: 1.03
Beagles [3]; [30]
  Acidity: 8.0 PH and 7.5 PH (2×)
  Creatinine UPC: <0.20 mg(ratio)
  Specific gravity: 1.05 and 1.03 and 1.02
Beagles [3]; [31]
  Acidity: 7.833 PH
  Specific gravity: 1.03
Beagles [3]; [32]
  Acidity: 9.0 PH and 7.0 PH and 7.5 PH
  Creatinine UPC: <0.20 mg(ratio)
  Occult blood: 0.06(1+) RBC/dl and 0.03(+−) RBC/dl
  Protein: 15(+−)
  Specific gravity: 1.04 and 1.02 and 1.03
[4]; high-dose 50 mg/kg for 2 months, 50 mg/kg
  ΔsCr: -0.02 ± 0.22 mg/dL
[4]; high-dose 50 mg/kg for 2 months, listed as 5-hydroxy-1-methylimidazolidine-2,4-dione, 50 mg/kg
  ΔsCr: -0.02 ± 0.22 mg/dL
[4]; highest-dose 100 mg/kg for 2 months, 100 mg/kg
  ΔsCr: 0.07 ± 0.20 mg/dL
[4]; highest-dose 100 mg/kg for 2 months, listed as 5-hydroxy-1-methylimidazolidine-2,4-dione, 100 mg/kg
  ΔsCr: 0.07 ± 0.20 mg/dL
[4]; low-dose 12.5 mg/kg for 2 months, 12.5 mg/kg
  ΔsCr: 0.58 ± 0.49 mg/dL
[4]; low-dose 12.5 mg/kg for 2 months, listed as 5-hydroxy-1-methylimidazolidine-2,4-dione, 12.5 mg/kg
  ΔsCr: 0.58 ± 0.49 mg/dL
[4]; medium-dose 25 mg/kg for 2 months, 25 mg/kg
  ΔsCr: 0.10 ± 0.34 mg/dL
[4]; medium-dose 25 mg/kg for 2 months, listed as 5-hydroxy-1-methylimidazolidine-2,4-dione, 25 mg/kg
  ΔsCr: 0.10 ± 0.34 mg/dL
